# Biological target: T1, HDAC6 enzyme (Homo sapiens, UniProt Q9UBN7)
# T1 construct: transducing full length HDAC6 gene into Sf-9 insect cells; GST; purchased SignalChem; host or cells: Sf-9 insect cells
# T1 sequence (Q9UBN7 1-1215): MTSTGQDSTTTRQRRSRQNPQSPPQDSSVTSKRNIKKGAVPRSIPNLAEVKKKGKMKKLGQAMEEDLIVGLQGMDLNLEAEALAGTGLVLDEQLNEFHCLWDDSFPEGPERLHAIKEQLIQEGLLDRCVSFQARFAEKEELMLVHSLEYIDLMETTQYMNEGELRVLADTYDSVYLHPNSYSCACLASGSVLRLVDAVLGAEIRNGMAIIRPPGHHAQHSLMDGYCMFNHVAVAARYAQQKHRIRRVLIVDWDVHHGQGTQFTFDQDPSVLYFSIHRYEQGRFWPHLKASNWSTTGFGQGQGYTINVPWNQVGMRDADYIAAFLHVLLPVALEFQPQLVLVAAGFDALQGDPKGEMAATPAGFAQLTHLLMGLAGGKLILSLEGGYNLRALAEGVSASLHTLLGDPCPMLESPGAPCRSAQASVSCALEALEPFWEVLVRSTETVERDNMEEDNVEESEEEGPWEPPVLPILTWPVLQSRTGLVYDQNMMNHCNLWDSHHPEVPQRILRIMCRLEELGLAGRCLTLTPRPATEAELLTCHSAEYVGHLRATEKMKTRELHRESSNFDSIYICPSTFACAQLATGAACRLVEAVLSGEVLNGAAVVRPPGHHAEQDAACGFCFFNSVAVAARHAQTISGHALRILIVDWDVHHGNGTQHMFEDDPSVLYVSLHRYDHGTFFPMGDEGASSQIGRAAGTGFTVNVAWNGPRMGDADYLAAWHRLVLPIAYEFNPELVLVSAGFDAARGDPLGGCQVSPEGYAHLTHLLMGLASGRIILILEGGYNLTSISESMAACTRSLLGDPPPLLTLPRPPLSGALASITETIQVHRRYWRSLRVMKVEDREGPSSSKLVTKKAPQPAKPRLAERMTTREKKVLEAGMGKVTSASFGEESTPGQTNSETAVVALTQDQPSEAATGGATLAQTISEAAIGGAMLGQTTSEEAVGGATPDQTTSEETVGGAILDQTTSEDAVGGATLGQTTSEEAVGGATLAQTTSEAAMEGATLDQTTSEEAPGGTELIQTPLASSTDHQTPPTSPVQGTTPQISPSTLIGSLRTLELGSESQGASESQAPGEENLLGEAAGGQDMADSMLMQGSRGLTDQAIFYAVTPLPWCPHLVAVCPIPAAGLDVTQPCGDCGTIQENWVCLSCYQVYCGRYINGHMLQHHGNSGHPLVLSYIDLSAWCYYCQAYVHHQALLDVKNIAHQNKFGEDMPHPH
# Assay: HDAC6 enzyme inhibitory activity (HDAC-Glo I/II Assay kit)
# Format: biochemical
# Conditions: 10 μM; wells without enzyme = 100% inhibition
# Outline: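 Sf-9-derived GST-purified full-length HDAC6 + cpd, 60 min RT, 24 mM Tris pH 7.5/0.6 mM glutathione/0.01% Tween-20; add HDAC-Glo substrate-developer, 20 min RT; luminescence. No-enzyme = 100% inhibition.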
row,HDAC6 inhibitory rate (%) (10 μM),SMILES
1,99,"O=C1c2cc(-c3nnc(C(F)F)o3)ccc2CN1N1CCC(F)(F)CC1c1cccc(F)c1 (stereo not drawn) [Example 562, 2-(4,4-difluoro-2-(3-fluorophenyl)piperidin-1-yl)-6-(5-(difluoromethyl)-1,3,4-oxadiazol-2-yl)isoindolin-1-one (optical isomer)]"
2,100,"O=C1c2cc(-c3nnc(C(F)F)o3)ccc2CN1N1CCC(F)(F)CC1c1cccc(F)c1 (stereo not drawn) [Example 565, 2-(4,4-difluoro-2-(3-fluorophenyl)piperidin-1-yl)-6-(5-(difluoromethyl)-1,3,4-oxadiazol-2-yl)isoindolin-1-one (optical isomer)]"
3,100,"O=C1c2cc(-c3nnc(C(F)F)o3)ccc2CN1N1CCC(F)(F)CC1c1ccc(F)cc1 (stereo not drawn) [Example 572, 2-(4,4-difluoro-2-(4-fluorophenyl)piperidin-1-yl)-6-(5-(difluoromethyl)-1,3,4-oxadiazol-2-yl)isoindolin-1-one (optical isomer)]"
4,99,"O=C1c2cc(-c3nnc(C(F)F)o3)ccc2CN1N1CCC(F)(F)CC1c1ccc(F)cc1 (stereo not drawn) [Example 573, 2-(4,4-difluoro-2-(4-fluorophenyl)piperidin-1-yl)-6-(5-(difluoromethyl)-1,3,4-oxadiazol-2-yl)isoindolin-1-one (optical isomer)]"
5,100,"O=C(NCC(F)(F)F)C1CC(F)(F)CCN1N1Cc2ccc(-c3nnc(C(F)F)o3)cc2C1=O (stereo not drawn) [Example 579, 1-(6-(5-(difluoromethyl)-1,3,4-oxadiazol-2-yl)-1-oxo-1,3-dihydro-2H-isoindol-2-yl)-4,4-difluoro-N-(2,2,2-trifluoroethyl)piperidine-2-carboxamide (Optical Isomer)]"
6,100,"O=C(NCC(F)(F)F)C1CC(F)(F)CCN1N1Cc2ccc(-c3nnc(C(F)F)o3)cc2C1=O (stereo not drawn) [Example 580, 1-(6-(5-(difluoromethyl)-1,3,4-oxadiazol-2-yl)-1-oxo-1,3-dihydro-2H-isoindol-2-yl)-4,4-difluoro-N-(2,2,2-trifluoroethyl)piperidine-2-carboxamide (Optical Isomer)]"
7,100,"O=C1c2cc(-c3nnc(C(F)F)o3)ccc2CN1N1CCCC1c1ccccn1 (stereo not drawn) [Example 596, 6-(5-(difluoromethyl)-1,3,4-oxadiazol-2-yl)-2-(2-(pyridin-2-yl)pyrrolidin-1-yl)isoindolin-1-one (optical isomer)]"

# Same assay, conditions: 10 μM; wells without enzyme = 100% inhibition; read-out: HDAC6 inhibitory rate (%) (10 μM)
row,SMILES,inhibition at 10 µM [%]
1,"O=C1c2cc(-c3nnc(C(F)F)o3)ccc2CN1N1CCC(F)(F)CC1c1cccc(F)c1 (centres unmarked) [Example 560, 2-(4,4-difluoro-2-(3-fluorophenyl)piperidin-1-yl)-6-(5-(difluoromethyl)-1,3,4-oxadiazol-2-yl)isoindolin-1-one]",100
2,"O=C1c2cc(-c3nnc(C(F)F)o3)ccc2CN1[C@@H]1CCOC[C@H]1n1nnc2cc(Cl)ccc21 [Example 563, 2-((3S,4R)-3-(5-chloro-1H-benzotriazol-1-yl)tetrahydro-2H-pyran-4-yl)-6-(5-(difluoromethyl)-1,3,4-oxadiazol-2-yl)isoindolin-1-one]",100
3,"O=C(NCC(F)(F)F)C1CC(F)(F)CCN1N1Cc2ccc(-c3nnc(C(F)F)o3)cc2C1=O (centres unmarked) [Example 564, 1-(6-(5-(difluoromethyl)-1,3,4-oxadiazol-2-yl)-1-oxo-1,3-dihydro-2H-isoindol-2-yl)-4,4-difluoro-N-(2,2,2-trifluoroethyl)piperidine-2-carboxamide]",100
4,"O=C1c2cc(-c3nnc(C(F)F)o3)ccc2CN1N1CCC(F)(F)CC1c1ccc(F)cc1 (centres unmarked) [Example 566, 2-(4,4-difluoro-2-(4-fluorophenyl)piperidin-1-yl)-6-(5-(difluoromethyl)-1,3,4-oxadiazol-2-yl)isoindolin-1-one]",100
5,"Cn1cc(C(=O)NCC(F)(F)F)c(N2Cc3ccc(-c4nnc(C(F)F)o4)cc3C2=O)n1 [Example 567, 3-(6-(5-(difluoromethyl)-1,3,4-oxadiazol-2-yl)-1-oxo-1,3-dihydro-2H-isoindol-2-yl)-1-methyl-N-(2,2,2-trifluoroethyl)-1H-pyrazole-4-carboxamide]",95
6,"Cn1cc(C(=O)NCC2CC2)c(N2Cc3ccc(-c4nnc(C(F)F)o4)cc3C2=O)n1 [Example 568, N-(cyclopropylmethyl)-3-(6-(5-(difluoromethyl)-1,3,4-oxadiazol-2-yl)-1-oxo-1,3-dihydro-2H-isoindol-2-yl)-1-methyl-1H-pyrazole-4-carboxamide]",96
7,"Cn1cc(C(=O)N2CCC(F)(F)CC2)c(N2Cc3ccc(-c4nnc(C(F)F)o4)cc3C2=O)n1 [Example 569, 6-(5-(difluoromethyl)-1,3,4-oxadiazol-2-yl)-2-(4-((4,4-difluoropiperidin-1-yl)carbonyl)-1-methyl-1H-pyrazol-3-yl)isoindolin-1-one]",99
8,"O=C1c2cc(-c3nnc(C(F)F)o3)ccc2CN1N1CCCC1c1ccccn1 (centres unmarked) [Example 570, 6-(5-(difluoromethyl)-1,3,4-oxadiazol-2-yl)-2-(2-(pyridin-2-yl)pyrrolidin-1-yl)isoindolin-1-one]",100
9,"O=C1c2cc(-c3nnc(C(F)F)o3)ccc2CN1c1cccn2cc(C(F)(F)F)nc12 [Example 571, 6-(5-(difluoromethyl)-1,3,4-oxadiazol-2-yl)-2-(2-(trifluoromethyl)imidazo[1,2-a]pyridin-8-yl)isoindolin-1-one]",73

# Continued, values first:
row,inhibition at 10 µM [%],SMILES
1,99,"O=C1c2cc(-c3nnc(C(F)F)o3)ccc2CN1[C@@H]1CCCC(F)(F)[C@H]1NC(=O)C(F)(F)C(F)F [Example 581, N-((1S,6R)-6-(6-(5-(difluoromethyl)-1,3,4-oxadiazol-2-yl)-1-oxo-1,3-dihydro-2H-isoindol-2-yl)-2,2-difluorocyclohexyl)-2,2,3,3-tetrafluoropropanamide]"
2,100,"CC(C)(CF)OC(=O)N[C@H]1[C@H](N2Cc3ccc(-c4nnc(C(F)F)o4)cc3C2=O)CCCC1(F)F [Example 582, 1-fluoro-2-methylpropan-2-yl ((1S,6R)-6-(6-(5-(difluoromethyl)-1,3,4-oxadiazol-2-yl)-1-oxo-1,3-dihydro-2H-isoindol-2-yl)-2,2-difluorocyclohexyl)carbamate]"
3,99,"CC(C)(OC(=O)N[C@H]1[C@H](N2Cc3ccc(-c4nnc(C(F)F)o4)cc3C2=O)CCCC1(F)F)C(F)F [Example 583, 1,1-difluoro-2-methylpropan-2-yl ((1S,6R)-6-(6-(5-(difluoromethyl)-1,3,4-oxadiazol-2-yl)-1-oxo-1,3-dihydro-2H-isoindol-2-yl)-2,2-difluorocyclohexyl)carbamate]"
4,99,"Cn1cc(C(=O)c2ccccc2)c(N2Cc3ccc(-c4nnc(C(F)F)o4)cc3C2=O)n1 [Example 592, 2-(4-benzoyl-1-methyl-1H-pyrazol-3-yl)-6-(5-(difluoromethyl)-1,3,4-oxadiazol-2-yl)isoindolin-1-one]"
5,100,"O=C1c2cc(-c3nnc(C(F)F)o3)cnc2CN1[C@@H]1CCCC[C@H]1Oc1ccccn1 [Example 593, 3-(5-(difluoromethyl)-1,3,4-oxadiazol-2-yl)-6-((1R,2R)-2-(pyridin-2-yloxy)cyclohexyl)-6,7-dihydro-5H-pyrrolo[3,4-b]pyridin-5-one]"
6,101,"O=C1c2cc(-c3nnc(C(F)F)o3)ccc2CN1N1CCCCC1c1ccc(F)cc1 (centres unmarked) [Example 594, 6-(5-(difluoromethyl)-1,3,4-oxadiazol-2-yl)-2-(2-(4-fluorophenyl)piperidin-1-yl)isoindolin-1-one]"
7,100,"O=C1c2cc(-c3nnc(C(F)F)o3)ccc2CN1N1CCC(F)(F)CC1c1ccc(F)cn1 (centres unmarked) [Example 595, 2-(4,4-difluoro-2-(5-fluoropyridin-2-yl)piperidin-1-yl)-6-(5-(difluoromethyl)-1,3,4-oxadiazol-2-yl)isoindolin-1-one]"

# From patent publication US10435399B2, “HDAC6 inhibitory heterocyclic compound” (TAKEDA PHARMACEUTICAL COMPANY LIMITED, priority 2017, dated 2019)
